What was measured:
[1] = tested on: Pythium ultimum strain MAFF425494; test: Control of Pythium soil-borne disease in cucumber by a Pseudomonas bacterium combined with an amino acid; format: in vivo; conditions: for effect on disease control ability of the Pseudomonas bacterium, averaged cucumber weight (FIG. 2): 10 mM amino acid combined with Pseudomonas protegens strain CHA0, n=12 per group
Method: The disease control abilities of a Pseudomonas bacterium and glutamic acid against an infectious disease caused by a Pythium (Pythium ultimum strain MAFF425494) as a soil pathogen were investigated using cucumber as a test plant.
(§1) Cucumber seeds were placed on a filter paper moistened with sterile water and left in darkness at 26° C. for 24 hours. Pseudomonas protegens strain CHA0 was used as a Pseudomonas bacterium and incubated with shaking in NYB medium (nutrient broth 25 g, yeast extract 5 g, H2O 1000 mL) under the conditions of 30° C. and 180 rpm for 24 hours. The broth culture of the Pseudomonas bacterium was centrifuged to remove supernatants, and the precipitate was suspended in sterile water to OD600=0.1.
Vermiculite was moistened by adding water. To the vermiculite, coarse cereal crops (millet) previously infected with a Pythium were added as they were, and mixing was done well. 7 g of the coarse cereal crops infected with a Pythium was added to 1 L of the vermiculite. Some portion of the vermiculite was left without adding the coarse cereal crops infected with a Pythium.
(§2) 50 mL of each prepared vermiculite was equally divided into sections (each 5 cm square and 5 cm deep) of a seedling tray with drainage holes at the bottom for water to drain out. Two grains of cucumber seeds observed to have germinated were seeded on each divided vermiculite.
The Pseudomonas bacterium and glutamic acid were applied to cucumber seeds and soils in their vicinity. To be specific, for each section of the seedling tray, 4 mL of the adjusted solution of the Pseudomonas bacterium was applied to cucumber seeds, and 15 mL of the vermiculite left without being infected with a Pythium was placed over the cucumber seeds. The seedling tray was soaked in water or an aqueous solution of 10 mM glutamic acid (L-glutamic acid) (10 mL per seedling tray section) contained in a vat. The applications of the Pseudomonas bacterium and glutamic acid were carried out within 2 hours after the seeding of cucumber seeds. The interval between the timings of applications of the Pseudomonas bacterium and glutamic acid was ensured to be not exceeding 1 hour.
The seedling tray was kept in a plant incubator set at 25° C. The light and dark periods were set to 16 and 8 hours, respectively. The cultivation period in the incubator was set to 2 weeks. Replacement of water or an aqueous solution of 10 mM glutamic acid in a vat was done every other day.
By using the same procedure as in Example 1, the effectiveness of combined use of the Pseudomonas bacterium with each of glutamic acid and histidine was investigated.
For application of histidine, an aqueous solution of 10 mM histidine (L-histidine) was prepared and used instead of the aqueous solution of glutamic acid used in Example 1. The number of cucumbers cultivated was n=12 for each group. After 2 weeks of cultivation, the weights of cucumbers were measured and averaged. Upon measurement of the weights of cucumbers, it was ensured that the vermiculite remaining on the roots of cucumbers was washed away carefully.
The effects of combined use of a Pseudomonas bacterium with other amino acids than histidine were investigated. In this example, not only glutamic acid (Glu), but also the following other amino acids: glutamine (Gln), glycine (Gly), leucine (Leu), phenylalanine (Phe), arginine (Arg), lysine (Lys), valine (Val), isoleucine (Ile) and tryptophane (Trp), were evaluated by using the same procedure as in Example 1. For each of these amino acids, an aqueous solution of 10 mM amino acid was prepared and used. In this example, Pseudomonas protegens strain Cab57 was used as a Pseudomonas bacterium, and all amino acids used were of the L-form.
The number of cucumbers cultivated in this example was n=12 to 18 for each group. As in Example 2, after 2 weeks of cultivation, the weights of cucumbers were measured and averaged. […]

[2] = tested on: Rhizoctonia solani strain MAFF726551; test: Control of Rhizoctonia soil-borne disease in cucumber by a Pseudomonas bacterium combined with glutamic acid; format: in vivo; conditions: 10 mM glutamic acid combined with Pseudomonas protegens strain Cab57, 5 days cultivation, n=8 to 12
Method: as §1, §2
The Pseudomonas bacterium and glutamic acid were applied to cucumber seeds and soils in their vicinity. […]
In this example, by using the same procedure as in Example 1, 1 g of coarse cereal crops infected with the Rhizoctonia was added to 1 L of vermiculite, instead of 7 g of coarse cereal crops infected with a Pythium. […] As in Example 3, for each of the averaged values of the cucumber weights after cultivation calculated for the different groups, a relative value was determined with respect to the averaged value for the group treated with the Pseudomonas bacterium alone, which was taken as 1.

## N[C@@H](CCC(=O)O)C(=O)O [glutamic acid, L-glutamic acid]
[1]; cucumber germinated seeds in vermiculite, 10 mM L-glutamic acid combined with Pseudomonas protegens strain CHA0, 2 weeks cultivation
  effect of combined use on the soil-borne disease control ability of the Pseudomonas bacterium (photograph, FIG. 1): enhanced the soil-borne disease control ability of the Pseudomonas bacterium
[1]; cucumber, 10 mM L-amino acid combined with Pseudomonas protegens strain Cab57, 2 weeks, n=12 to 18
  effect on disease control ability of the Pseudomonas bacterium, cucumber weight relative to bacterium alone = 1 (FIG. 3): exhibited a similar effect even on a different strain of Pseudomonas bacterium
[1]; cucumber, 10 mM L-glutamic acid alone, no Pseudomonas bacterium, 2 weeks cultivation
  soil-borne disease control ability of glutamic acid itself (FIG. 1): seemed not to have a high soil-borne disease control ability
[1]; cucumber, 2 weeks
  effect on disease control ability of the Pseudomonas bacterium, averaged cucumber weight (FIG. 2): enhanced the disease control ability of the bacterium
[1]; cucumber, 10 mM glutamic acid combined with Pseudomonas sp. strain Os17, 2 weeks, n=17
  effect on disease control ability of the Pseudomonas bacterium, cucumber weight relative to bacterium alone = 1 (FIG. 4): exhibited a similar effect
[2]
  effect on soil-borne disease control ability of the Pseudomonas bacterium, cucumber weight relative to bacterium alone = 1 (FIG. 5): exhibited similar enhancement of soil-borne disease control ability

## N[C@@H](Cc1c[nH]cn1)C(=O)O [histidine, L-histidine, reference compound]
[1]; cucumber, 2 weeks
  effect on disease control ability of the Pseudomonas bacterium, averaged cucumber weight (FIG. 2): did not have a capability of enhancing the disease control ability of the Pseudomonas bacterium

Source: US20210161149A1, “METHOD OF CONTROLLING SOIL-BORNE DISEASES OF PLANTS” (NATIONAL AGRICULTURE AND FOOD RESEARCH ORGANIZATION, priority 2018, published 2021)
